Assay results from patent US11692212B2, “Diagnosis and treatment of invasive aspergillosis” (The Brigham and Women's Hospital, Inc., priority 2014, dated 2023).
Starred links: 1 amine or outer side, 2 acyl side, 3 side chain; linkers in the order of their positions; H or OH if unused. Positions of bridges follow the written chain, without caps; N, C: chain ends. Non-standard residues stand in square brackets, D forms with d. Residues, ends and D or L forms follow the SMILES beside them. *: point of attachment. hTyr(3S-OH,4S-OH,3'-OSO3H) = N[C@H](C(=O)O)[C@H](O)[C@@H](O)c1ccc(O)c(OS(=O)(=O)O)c1; Orn(4R-OH,5R-OH) = O=C([C@H](C[C@@H](O)[C@@H](O)N[*:3])N[*:1])[*:2]; Pro(3S-OH,4S-Me) = C[C@H]1CN[C@H](C(=O)O)[C@H]1O; X1 = CCCCCOc1ccc(-c2cc(-c3ccc(C(=O)*)cc3)no2)cc1; Gln(3R-OH) = NC(=O)C[C@@H](O)[C@H](N)C(=O)O; Hyp = O=C(O)[C@@H]1C[C@@H](O)CN1

Experiments:
A. terreus isolates = conditions: Baddley et al. 2009; cited from earlier work
Aspergillus fumigatus = test: Antifungal exposure of 48-hour hyphal cultures, headspace VOC release by GC-MS (Example 1); format: cell-based; set-up: increase in some of the key A. fumigatus VOC features / change of key A. fumigatus VOC features at 24 hours: dose or concentration left out as unconfirmed; conditions: for change of key A. fumigatus VOC features at 24 hours: vs matched controls
Procedure: For each experiment, 10^4 conidia were inoculated into 5 mL of microbial media (either nutrient Yeast Extract Peptone Dextrose (YPD) broth, nutrient poor Aspergillus minimal media (Pontecorvo et al., Advan Genet 1953; 5:141-238), or under iron-starved, alkaline stress, or nitrogen-depleted conditions (McDonagh et al., PLoS Pathog 2008; 4:e1000154)) in 20 mL glass vials with an airtight crimp top incorporating a rubber septum. Cultures were incubated for 24-144 hours at 200 rpm and 37° C. and headspace gas was dynamically adsorbed, using argon carrier gas and an air sampling pump calibrated to 20 mL/minute, onto Markes thermal desorption traps containing tandem beds of Tenax TA (200 mg), Carbograph 1 TD (100 mg), and Carboxen 1003 (100 mg), optimized to retain VOCs of diverse size and polarity.
Headspace VOCs were also collected after exposure of a subset of fungal isolates to the antifungal drugs voriconazole, liposomal amphotericin B, and micafungin, each at a concentration of […].
VOCs were desorbed onto a dual GC-MS/DMS system (FIG. 1)—the eluent from the gas chromatograph was split between the MS, to allow identification of each compound, and the DMS, an extremely sensitive and selective gas detector that can be easily used as a point-of-care gas detection device, to determine the mobility pattern for each compound. The NIST MS Search 2.0 Library was used to identify VOCs in the total ion chromatogram (TIC) of the GC-MS data. Differences in spectral features of DMS output were visually distinguished between the positive ion spectra of A. fumigatus and A. terreus and principal component analysis (PCA) was used to evaluate the degree of class discrimination between these fungal species using algorithms in MATLAB (Version R2012a).
Whether exposure to antifungal drugs might modulate VOC release in Aspergillus fumigatus was assessed in vitro.

[1] = system: A. fumigatus Af293 and A1163; test: A. fumigatus volatome response to antifungal drug exposure, headspace TD-GC-MS (Example 2); format: cell-based, Aspergillus fumigatus; conditions: 1.0 μg/mL; for all volatile metabolites 36 hours later: 36 hours after the 12-hour sampling
Procedure: We assessed whether we could modulate the A. fumigatus VOC metabolome with voriconazole, micafungin, and liposomal amphotericin B antifungal drug exposure, as described online (Methods). Headspace volatile metabolites of A. terreus, A. flavus, A. niger, and A. calidoustus were characterized as outlined above, in YPD broth at 96 hours.
Assessment of the A. fumigatus volatome response to antifungal drug exposure: For an assessment of A. fumigatus VOC response to antifungal drug exposure, 10^4A. fumigatus Af293 and A1163 conidia were inoculated into YPD broth and incubated at 37° C. at 250 rpm for 48 hours, then exposed to an inhibitory dose (1.0 μg/mL) of voriconazole (Pfizer Inc., New York, N.Y.), micafungin, liposomal amphotericin (both Astellas Pharma US, Inc., Northbrook, Ill.), or no antifungal therapy for 12 hours, in 4 technical replicates, with matched media controls exposed to the same conditions. VOCs in the headspace of each vial were extracted onto thermal desorption tubes. The cultures and media samples were incubated at 37° C. at 250 rpm for another 36 hours, with repeat extraction of the headspace gas onto thermal desorption tubes.
For both in vitro culture headspace extractions and patient breath samples, VOCs were thermally desorbed onto an automated thermal desorption unit (TD-100, Markes International) at 290° C. for 20 minutes with helium carrier gas at a flow rate of 40 mL per minute and concentrated onto a Unity2/TD-100 cold trap (U-15ATA-2S, Markes International). The cold trap was rapidly heated to 270° C. to deliver adsorbed VOCs (3.5:1 split) to a VF624 capillary column (30 m×0.32 mm, 6% cyanopropyl/phenyl, 94% polydimethylsiloxane, film thickness 1.8 μm, Agilent Technologies, Santa Clara, Calif.) with a gas chromatograph (GC) inlet temperature of 250° C. VOCs delivered to the capillary column were separated using a GC temperature program of 40° C. for 3 minutes, raised to 70° C. at a rate of 5° C. per minute and held for 3 minutes, raised to 203° C. at 7° C. per minute and held for 4 minutes, then rapidly raised to 270° C. and held for 5 minutes. A single quadrupole mass spectrometry (MS) detector (Agilent 5975, Agilent Technologies, Santa Clara, Calif.) was used to analyze and identify VOCs, with a MS source temperature of 230° C., MS quad temperature of 150° C., and an electron ionization parameter of […]. A mass range m/z 40-400 was measured with a threshold of 150.
We assessed whether we could modulate the A. fumigatus VOC metabolome with voriconazole, micafungin, and liposomal amphotericin B antifungal drug exposure. […]

[2] = drug added to 48-hour hyphal cultures, after 24 hours

Compound | susceptibility of some A. terreus isolates (A. terreus isolates) | increase in some of the key A. fumigatus VOC features (Aspergillus fumigatus; drug added to 48-hour hyphal cultures, after 24 hours, vs matched control samples without drug) | change of key A. fumigatus VOC features at 24 hours (Aspergillus fumigatus; [2]) | change of key A. fumigatus VOC features with longer incubation (Aspergillus fumigatus; longer duration of incubation and hyphal death) | β-trans-bergamotene increase from baseline ([1]; 12 hours of exposure, 48-hour hyphae in YPD broth) | all volatile metabolites 36 hours later [1] | primary metabolite, monoterpene, and sesquiterpene production ([1]; 12 hours of exposure)
C[C@@H]1[C@H](O)[C@@H](C)/C=C/C=C/C=C/C=C/C=C/C=C/C=C/[C@H](O[C@@H]2O[C@H](C)[C@@H](O)[C@H](N)[C@@H]2O)C[C@@H]2O[C@](O)(C[C@@H](O)C[C@@H](O)[C@H](O)CC[C@@H](O)C[C@@H](O)CC(=O)O[C@H]1C)C[C@H](O)[C@H]2C(=O)O [AMB, amphotericin B] | resistant | – | – | – | – | – | –
CCCCCOc1ccc(-c2cc(-c3ccc(C(=O)N[C@H]4C[C@@H](O)[C@@H](O)NC(=O)[C@@H]5[C@@H](O)[C@@H](C)CN5C(=O)[C@H]([C@H](O)CC(N)=O)NC(=O)[C@H]([C@H](O)[C@@H](O)c5ccc(O)c(OS(=O)(=O)O)c5)NC(=O)[C@@H]5C[C@@H](O)CN5C(=O)[C@H]([C@@H](C)O)NC4=O)cc3)no2)cc1 [micafungin] (X1-[Orn(4R-OH,5R-OH)]T[Hyp][hTyr(3S-OH,4S-OH,3'-OSO3H)][Gln(3R-OH)][Pro(3S-OH,4S-Me)]; lactam 1-C) | – | ≤ 17 fold | initial increase | attenuation | 10 fold | near-complete attenuation | –
C[C@@H](c1ncncc1F)[C@](O)(Cn1cncn1)c1ccc(F)cc1F [voriconazole] | – | – | near-complete attenuation | – | – | attenuation | reduced
